In patent EP0533825B1, “ETHER LIPID-NUCLEOSIDE COVALENT CONJUGATES” (WAKE FOREST UNIVERSITY, priority 1990, dated 1991):

Experiments:
CEM-SS cells [1] = test: Cell cytotoxicity (Table 1); format: cell-based; conditions: read-out: Inhibitory Concentration50 For: Cell Cyto-toxicity
HIV-1 [2] = conditions: persistently infected monocyte/macrophage (U1) cells
From the text: Anti-HIV1 Activity of Lipid-Nucleoside Conjugates. […] In brief, CEM-SS cell monolayers were infected with HIV-1. […] Plaques were counted at five days after infection. In this assay HIV-1 syncytial plaques are seen as large, multicellular foci (10 to 25 nuclei/syncytium) that appear either brown and granular or clear. Silnce the number of HIV-1 syncytial plaques correlates with reverse transcriptase (RT) and p24 core antigen activity in the HIV-1 infected cell overlay fluids, the syncytial plaque assay can be used to quantify the amount of infectious virus. […] The activity of p24 core antigen induced by HIV-1 infection of CEM-SS cells was measured spectrophotometrically using the commercial Coulter EIA.
(§1) Anti-HIV1 Activity of Lipid-Nucleoside Conjugates in Monocyte/Macrophages. Monocyte/macrophages represent a major reservoir of HIV-1 in the infected human host. […] However, these cells tend to be resistent to dideoxynucleoside prodrugs due to low levels of kinases needed to activate the prodrugs. See C. […]

HIV-1 [3] = conditions: persistently infected monocyte/macrophage (U1) cells; remark: listed apart in the source
From the text: as §1

CEM-SS cells [4] = test: CEM-SS cell growth, 3H-Tdr pulse labelling to measure DNA synthesis; format: cell-based; conditions: Homo sapiens, 48 hours at 37°C, then 3H-Tdr pulse for 8 hours
Description: To determine the IC₅₀ for cell growth, CEM-SS cells in suspension culture (10,000 cells/ml RPMI-1640 growth medium) were incubated with serial dilutions of compound at 37°C for 48 hours and then pulsed labelled with 1 microCi of ³H-Tdr (SA = 20 Ci/mmole) for 8 hours at 37°C to measure DNA synthesis.

Compound	IC50 (CEM-SS cells [1]; Homo sapiens, CEM-SS) [µM]	IC50 (CEM-SS cells [4]) [µM]	other results
3'-Azido-3'-deoxythymidine-5'-monophosphate-D,L-3-octadecanamido-2-ethoxypropane [Compound A]			IC50 (CEM-SS cells [1]): 53.8 µM
Cc1cn([C@H]2C[C@H](N=[N+]=[N-])[C@@H](CO)O2)c(=O)[nH]c1=O [AZT, 3'-azido-3'-deoxythymidine]	5.6	5.1	Percent of Control (RT DPM) (HIV-1 [2]): 90% of Control; Percent of Control (p24 Core Ag) (HIV-1 [2]): 101% of Control; Percent of Control (PFU) (HIV-1 [3]): 87% of Control
CCCCCCCCCCCCCCCCCC(=O)NCC(COP(=O)([O-])OC(CC(=O)OC[C@H]1O[C@@H](n2cc(C)c(=O)[nH]c2=O)C[C@@H]1N=[N+]=[N-])C[N+](C)(C)C)OCC (stereo partly drawn) [BB, 3'-Azido-3-deoxythymidine-5'-butyrate-γ-N,N,N-trimethyl-ammonium-β-(1-phospho-2-ethoxy-3-octadecanamidopropane)]		13.7	
CCCCCCCCCCCCCCCCOCC(COP(=O)([O-])OC(CC(=O)OC[C@H]1O[C@@H](n2cc(C)c(=O)[nH]c2=O)C[C@@H]1N=[N+]=[N-])C[N+](C)(C)C)OCC (stereo partly drawn) [Compound AA, 3'-Azido-3'-deoxythymidine-5'-butyrate-γ-N,N,N-trimethyl-ammonium-β-(1-phospho-2-ethoxy-3-hexadecyloxypropane)]		13.5	
CCCCCCCCCCCCCCCCOCC(COP(=O)(O)OC[C@H]1O[C@@H](n2cc(C)c(=O)[nH]c2=O)C[C@@H]1N=[N+]=[N-])OCC (stereo partly drawn) [Compound B, 3'-Azido-3'-deoxythymidine-5'-monophosphate-D,L-3-hexadecyloxy-2-ethoxypropane]	35 ± 2.1		
CCCCCCCCCCCCCCCCSCC(COP(=O)(O)OC[C@H]1O[C@@H](n2cc(C)c(=O)[nH]c2=O)C[C@@H]1N=[N+]=[N-])OC (stereo partly drawn) [Compound C, 3'-Azido-3'-deoxythymidine-5'-monophosphate-D,L-3-hexadecylthio-2-methoxypropane]	29.2 ± 5.7		
O=c1[nH]cnc2c1ncn2[C@H]1CC[C@@H](CO)O1 [DDI, dideoxyinosine]	> 100		
